Laboratory results: PubChem BioAssay AID1259407 (Chemical Carcinogenesis Research Information System (CCRIS), 2018)
Active and inactive are the calls of the source. How the calls were made is not given here.

Tested on: CCRIS mutagenicity, Ames/micronucleus/aberration tests
Test: CCRIS mutagenicity studies
[1] = Test System: AMES SALMONELLA TYPHIMURIUM, Strain/Indicator: TA98, Metabolic Activation: NONE, Method: PREINCUBATION
[2] = Test System: AMES SALMONELLA TYPHIMURIUM, Strain/Indicator: TA98, Metabolic Activation: NONE, Method: STANDARD PLATE
[3] = Test System: AMES SALMONELLA TYPHIMURIUM, Strain/Indicator: TA100, Metabolic Activation: NONE, Method: PREINCUBATION
[4] = Test System: AMES SALMONELLA TYPHIMURIUM, Strain/Indicator: TA1535, Metabolic Activation: NONE, Method: PREINCUBATION

`C=C(C)[C@H]1CC=C(C)CC1` was tested, and the mutagenic call (End Point: IN VITRO CHROMOSOMAL ABERRATIONS, Test System: CHO CELLS, Metabolic Activation: NONE) was “inactive; negative”, the mutagenic call (End Point: IN VITRO CHROMOSOMAL ABERRATIONS, Test System: CHO CELLS, Metabolic Activation: RAT, LIVER, S-9, AROCLOR 1254) was “inactive; negative” and the mutagenic call (Test System: AMES SALMONELLA TYPHIMURIUM, Strain/Indicator: TA98, Metabolic Activation: HAMSTER, LIVER, S-9, AROCLOR 1254, Method: PREINCUBATION) was “inactive; negative”. For the same compound, the mutagenic call [1] was “inactive; negative”, the mutagenic call [2] was “inactive; negative” and the mutagenic call (Test System: AMES SALMONELLA TYPHIMURIUM, Strain/Indicator: TA98, Metabolic Activation: RAT, LIVER, S-9, AROCLOR 1254, Method: PREINCUBATION) was “inactive; negative”. For the same compound, the mutagenic call (Test System: AMES SALMONELLA TYPHIMURIUM, Strain/Indicator: TA98, Metabolic Activation: RAT, LIVER, S-9, AROCLOR, Method: STANDARD PLATE) was “inactive; negative”, the mutagenic call (Test System: AMES SALMONELLA TYPHIMURIUM, Strain/Indicator: TA100, Metabolic Activation: HAMSTER, LIVER, S-9, AROCLOR 1254, Method: PREINCUBATION) was “inactive; negative” and the mutagenic call [3] was “inactive; negative”. For the same compound, the mutagenic call (Test System: AMES SALMONELLA TYPHIMURIUM, Strain/Indicator: TA100, Metabolic Activation: NONE, Method: STANDARD PLATE) was “inactive; negative”, the mutagenic call (Test System: AMES SALMONELLA TYPHIMURIUM, Strain/Indicator: TA100, Metabolic Activation: RAT, LIVER, S-9, AROCLOR 1254, Method: PREINCUBATION) was “inactive; negative” and the mutagenic call (Test System: AMES SALMONELLA TYPHIMURIUM, Strain/Indicator: TA100, Metabolic Activation: RAT, LIVER, S-9, AROCLOR, Method: STANDARD PLATE) was “inactive; negative”. The mutagenic call (Test System: AMES SALMONELLA TYPHIMURIUM, Strain/Indicator: TA1535, Metabolic Activation: HAMSTER, LIVER, S-9, AROCLOR 1254, Method: PREINCUBATION) was “inactive; negative”, the mutagenic call [4] was “inactive; negative” and the mutagenic call (Test System: AMES SALMONELLA TYPHIMURIUM, Strain/Indicator: TA1535, Metabolic Activation: RAT, LIVER, S-9, AROCLOR 1254, Method: PREINCUBATION) was “inactive; negative”. The mutagenic call (Test System: AMES SALMONELLA TYPHIMURIUM, Strain/Indicator: TA1537, Metabolic Activation: HAMSTER, LIVER, S-9, AROCLOR 1254, Method: PREINCUBATION) was “inactive; negative”, the mutagenic call (Test System: AMES SALMONELLA TYPHIMURIUM, Strain/Indicator: TA1537, Metabolic Activation: NONE, Method: PREINCUBATION) was “inactive; negative” and the mutagenic call (Test System: AMES SALMONELLA TYPHIMURIUM, Strain/Indicator: TA1537, Metabolic Activation: RAT, LIVER, S-9, AROCLOR 1254, Method: PREINCUBATION) was “inactive; negative”. For the same compound, the mutagenic call (Test System: AMES SALMONELLA TYPHIMURIUM, Strain/Indicator: UTH8413, Metabolic Activation: NONE, Method: STANDARD PLATE) was “inactive; negative”, the mutagenic call (Test System: AMES SALMONELLA TYPHIMURIUM, Strain/Indicator: UTH8413, Metabolic Activation: RAT, LIVER, S-9, AROCLOR, Method: STANDARD PLATE) was “inactive; negative” and the mutagenic call (Test System: AMES SALMONELLA TYPHIMURIUM, Strain/Indicator: UTH8414, Metabolic Activation: NONE, Method: STANDARD PLATE) was “inactive; negative”. The mutagenic call (Test System: AMES SALMONELLA TYPHIMURIUM, Strain/Indicator: UTH8414, Metabolic Activation: RAT, LIVER, S-9, AROCLOR, Method: STANDARD PLATE) was “inactive; negative”, the mutagenic call (Test System: MOUSE LYMPHOMA, Strain/Indicator: L5178Y (TK+/TK-), Metabolic Activation: NONE, Method: SUSPENSION/PLATE) was “inactive; negative” and the mutagenic call (Test System: MOUSE LYMPHOMA, Strain/Indicator: L5178Y (TK+/TK-), Metabolic Activation: RAT, LIVER, S-9, AROCLOR 1254, Method: SUSPENSION/PLATE) was “active; positive”.

In the case of `Cc1cccc2cc3ccc4cccc5ccc(c12)c3c45`, the mutagenic call (Test System: AMES SALMONELLA TYPHIMURIUM, Strain/Indicator: TA100, Metabolic Activation: RAT, INTACT HEPATOCYTES, AROCLOR 1254, Method: PREINCUBATION) is reported as “inactive; negative” and the mutagenic call (Test System: AMES SALMONELLA TYPHIMURIUM, Strain/Indicator: TA100, Metabolic Activation: RAT, NADPH-FORTIFIED HOMOGENIZED HEPATOCYTES, AROCLOR 1254, Method: PREINCUBATION) is reported as “active; positive”.

In the case of `C[C@]12CC[C@@H]3c4ccc(O)c(O)c4CC[C@H]3[C@@H]1CC[C@@H]2O`, the mutagenic call (Test System: Ames Salmonella Typhimurium, Strain/Indicator: TA98, Metabolic Activation: None, Method: Standard plate) is reported as “inactive; negative”, the mutagenic call (Test System: Ames Salmonella Typhimurium, Strain/Indicator: TA98, Metabolic Activation: Rat, liver, S-9 (0.5 ml), Method: Standard plate) is reported as “inactive; negative” and the mutagenic call (Test System: Ames Salmonella Typhimurium, Strain/Indicator: TA100, Metabolic Activation: None, Method: Standard plate) is reported as “inactive; negative”. The mutagenic call (Test System: Ames Salmonella typhimurium, Strain/Indicator: TA100, Metabolic Activation: Rat, liver, S-9, Method: Standard plate) was “inactive; negative”.

In the case of `c1ccc(COCc2ccccc2)cc1`, the mutagenic call (Test System: AMES SALMONELLA TYPHIMURIUM, Strain/Indicator: TA97, Metabolic Activation: HAMSTER, LIVER, S-9, AROCLOR 1254 (10 OR 30%), Method: PREINCUBATION) is reported as “inactive; negative”, the mutagenic call (Test System: AMES SALMONELLA TYPHIMURIUM, Strain/Indicator: TA97, Metabolic Activation: NONE, Method: PREINCUBATION) is reported as “inactive; negative” and the mutagenic call (Test System: AMES SALMONELLA TYPHIMURIUM, Strain/Indicator: TA97, Metabolic Activation: RAT, LIVER, S-9, AROCLOR 1254 (10 OR 30%), Method: PREINCUBATION) is reported as “inactive; negative”. For the same compound, the mutagenic call (Test System: AMES SALMONELLA TYPHIMURIUM, Strain/Indicator: TA98, Metabolic Activation: HAMSTER, LIVER, S-9, AROCLOR 1254 (10 OR 30%), Method: PREINCUBATION) was “inactive; negative”, the mutagenic call [1] was “inactive; negative” and the mutagenic call (Test System: AMES SALMONELLA TYPHIMURIUM, Strain/Indicator: TA98, Metabolic Activation: RAT, LIVER, S-9, AROCLOR 1254 (10 OR 30%), Method: PREINCUBATION) was “inactive; negative”. The mutagenic call (Test System: AMES SALMONELLA TYPHIMURIUM, Strain/Indicator: TA98, Metabolic Activation: RAT, LIVER, S-9, AROCLOR 1254 (30%), Method: PREINCUBATION) was “inactive; negative”, the mutagenic call (Test System: AMES SALMONELLA TYPHIMURIUM, Strain/Indicator: TA100, Metabolic Activation: HAMSTER, LIVER, S-9, AROCLOR 1254 (10%), Method: PREINCUBATION) was “inactive; negative” and the mutagenic call (Test System: AMES SALMONELLA TYPHIMURIUM, Strain/Indicator: TA100, Metabolic Activation: HAMSTER, LIVER, S-9, AROCLOR 1254 (30%), Method: PREINCUBATION) was “inactive; negative”. For the same compound, the mutagenic call [3] was “inactive; negative”, the mutagenic call (Test System: AMES SALMONELLA TYPHIMURIUM, Strain/Indicator: TA100, Metabolic Activation: RAT, LIVER, S-9, AROCLOR 1254 (10%), Method: PREINCUBATION) was “inactive; negative” and the mutagenic call (Test System: AMES SALMONELLA TYPHIMURIUM, Strain/Indicator: TA100, Metabolic Activation: RAT, LIVER, S-9, AROCLOR 1254 (30%), Method: PREINCUBATION) was “inactive; negative”. The mutagenic call (Test System: AMES SALMONELLA TYPHIMURIUM, Strain/Indicator: TA1535, Metabolic Activation: HAMSTER, LIVER, S-9, AROCLOR 1254 (10 OR 30%), Method: PREINCUBATION) was “inactive; negative”, the mutagenic call [4] was “inactive; negative” and the mutagenic call (Test System: AMES SALMONELLA TYPHIMURIUM, Strain/Indicator: TA1535, Metabolic Activation: RAT, LIVER, S-9, AROCLOR 1254 (10 OR 30%), Method: PREINCUBATION) was “inactive; negative”.

`c1ccc2c(c1)-c1ccccc1C1NC21` (stereo not drawn) was tested, and the mutagenic call [2] was “active; positive”, the mutagenic call (Test System: AMES SALMONELLA TYPHIMURIUM, Strain/Indicator: TA1537, Metabolic Activation: NONE, Method: STANDARD PLATE) was “active; positive” and the mutagenic call (Test System: CHINESE HAMSTER V-79, Strain/Indicator: V-79/6-THIOGUANINE, Metabolic Activation: NONE, Method: STANDARD PLATE) was “active; positive”.

For `O=C1C=Cc2c(ccc3cc4ccccc4cc23)C1=O`, the mutagenic call (Test System: AMES SALMONELLA TYPHIMURIUM, Strain/Indicator: TA97A, Metabolic Activation: NONE, Method: PREINCUBATION) was “inactive; negative”, the mutagenic call [1] was “inactive; negative” and the mutagenic call [3] was “inactive; negative”. For the same compound, the mutagenic call (Test System: AMES SALMONELLA TYPHIMURIUM, Strain/Indicator: TA102, Metabolic Activation: NONE, Method: PREINCUBATION) was “inactive; negative” and the mutagenic call (Test System: AMES SALMONELLA TYPHIMURIUM, Strain/Indicator: TA104, Metabolic Activation: NONE, Method: PREINCUBATION) was “inactive; negative”.
